pIC50: −log10 of the molar value.
Target: IGF-1R (Homo sapiens (Human), UniProt P08069)
Test: Example B-1: IGF-1R Assay (PC3 cells, IGF1 stimulation, AlphaLISA)
Type: cell-based
Details: 200 ng/mL IGF1 stimulation, read-out: Biological Activity against IGF-1R IC50
In short: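 PC3 cells were serum-starved 2 h, treated with serially diluted compounds for 2 h, then stimulated with IGF1 (200 ng/mL final) for 30 min. Lysates were read by AlphaLISA; % inhibition was calculated relative to vehicle and EC80 controls, with IC50 values binned into ranges.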

Sequence of IGF-1R (P08069 31-1367): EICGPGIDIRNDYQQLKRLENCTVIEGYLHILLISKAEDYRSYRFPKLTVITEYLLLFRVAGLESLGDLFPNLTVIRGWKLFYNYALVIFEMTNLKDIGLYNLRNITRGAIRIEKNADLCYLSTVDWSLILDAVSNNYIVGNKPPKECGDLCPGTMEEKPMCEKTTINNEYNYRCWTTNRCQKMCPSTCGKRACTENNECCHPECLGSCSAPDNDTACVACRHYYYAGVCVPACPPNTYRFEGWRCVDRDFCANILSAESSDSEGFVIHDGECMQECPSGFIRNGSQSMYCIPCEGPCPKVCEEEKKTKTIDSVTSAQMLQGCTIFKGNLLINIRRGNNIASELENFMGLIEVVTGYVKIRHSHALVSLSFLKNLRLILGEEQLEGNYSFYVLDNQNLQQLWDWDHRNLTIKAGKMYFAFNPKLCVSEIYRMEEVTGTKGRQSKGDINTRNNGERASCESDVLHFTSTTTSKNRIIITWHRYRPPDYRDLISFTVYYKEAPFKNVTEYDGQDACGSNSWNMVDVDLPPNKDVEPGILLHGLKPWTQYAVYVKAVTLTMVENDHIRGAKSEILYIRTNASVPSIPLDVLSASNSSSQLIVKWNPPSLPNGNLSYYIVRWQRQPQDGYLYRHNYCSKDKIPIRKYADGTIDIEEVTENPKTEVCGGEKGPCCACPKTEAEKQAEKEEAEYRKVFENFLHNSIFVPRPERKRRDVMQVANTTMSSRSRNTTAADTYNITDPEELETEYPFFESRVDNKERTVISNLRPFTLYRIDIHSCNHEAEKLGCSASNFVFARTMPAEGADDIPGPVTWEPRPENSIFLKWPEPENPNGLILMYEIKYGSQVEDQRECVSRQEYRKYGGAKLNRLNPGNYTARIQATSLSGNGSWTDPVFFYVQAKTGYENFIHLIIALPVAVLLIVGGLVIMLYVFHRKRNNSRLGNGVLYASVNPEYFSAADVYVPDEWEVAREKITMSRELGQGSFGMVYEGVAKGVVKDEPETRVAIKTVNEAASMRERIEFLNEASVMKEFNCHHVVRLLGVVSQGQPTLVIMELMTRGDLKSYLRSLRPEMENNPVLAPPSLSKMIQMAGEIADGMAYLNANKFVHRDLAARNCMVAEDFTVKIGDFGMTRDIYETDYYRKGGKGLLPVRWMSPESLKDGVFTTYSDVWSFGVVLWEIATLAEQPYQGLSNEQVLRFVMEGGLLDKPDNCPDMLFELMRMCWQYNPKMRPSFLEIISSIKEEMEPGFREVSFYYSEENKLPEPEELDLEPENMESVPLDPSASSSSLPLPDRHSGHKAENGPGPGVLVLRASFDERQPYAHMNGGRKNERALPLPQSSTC

Row | Structure (SMILES) | pIC50
1 | COc1cc(Nc2nccc(Nc3cnc4c(c3)OCCC4)n2)ccc1OCCCN1CCCCC1 [Compound 383, 4-(3,4-dihydro-2H-1-oxa-5-azanaphth-7-ylamino)-2-[3-methoxy-4-(3-piperidinopropoxy)phenylamino]pyrimidine] | ≥ 6.30
2 | c1ccc2ncc(Nc3ccnc(Nc4ccc(O[C@H]5C[C@@H](N6CCOCC6)C5)cc4)n3)cc2c1 [Compound 28, 4-(3-quinolylamino)-2-{p-[(1s,3s)-3-morpholinocyclobutoxy]phenylamino}pyrimidine] | ≥ 6.30
3 | COc1cc(Nc2nccc(Nc3cnc4ccc(Br)cc4c3)n2)ccc1O[C@H]1CC[C@@H](N2CCOCC2)CC1 [Compound 32, 4-(6-bromo-3-quinolylamino)-2-{3-methoxy-4-[(1s,4s)-4-morpholinocyclohexyloxy]phenylamino}pyrimidine] | ≥ 6.30
4 | COc1cc(Nc2nccc(Nc3cnc4cc(OC(F)(F)F)ccc4c3)n2)ccc1O[C@H]1C[C@H](N(C)C)C1 [Compound 8, 2-{3-methoxy-4-[(1r,3r)-3-(dimethylamino)cyclobutoxy]phenylamino}-4-(7-trifluoromethoxy-3-quinolylamino)pyrimidine] | ≥ 6.30
5 | COc1cc(Nc2nccc(Nc3cnc4c(c3)C3CCC4C3)n2)ccc1O[C@H]1C[C@H](N(C)C)C1 (some centres unmarked) [Compound 76, 4-(3-azatricyclo[6.2.1.02,7]undeca-2,4,6-trien-5-ylamino)-2-{3-methoxy-4-[(1r,3r)-3-(dimethylamino)cyclobutoxy]phenylamino}pyrimidine] | ≥ 6.30
6 | CN(C)[C@H]1C[C@H](Oc2ccc(Nc3nccc(Nc4cnc5c(c4)OCCO5)n3)cc2)C1 [Compound 317, 4-(2,3-dihydro-1,4-dioxa-5-aza-7-naphthylamino)-2-{p-[(1r,3r)-3-(dimethylamino)cyclobutoxy]phenylamino}pyrimidine] | ≥ 6.30

Next, values leading:

Row | pIC50 | Structure (SMILES)
7 | ≥ 6.30 | COc1nc(N2CCN(C)CC2)ccc1Nc1nccc(Nc2cnc3cc(F)c(F)cc3c2)n1 [Compound 472, 4-(6,7-difluoro-3-quinolylamino)-2-[2-methoxy-6-(4-methyl-1-piperazinyl)-3-pyridylamino]pyrimidine]
8 | ≥ 6.30 | CCc1ccc2ncc(Nc3ccnc(Nc4ccc(OCCCN5CCOCC5)c(OC)c4)n3)cc2c1 [Compound 104, 4-(6-ethyl-3-quinolylamino)-2-[3-methoxy-4-(3-morpholinopropoxy)phenylamino]pyrimidine]
9 | ≥ 6.30 | CN(C)CC1Cc2ccc(Nc3nccc(Nc4cc5cccc(F)c5[nH]c4=O)n3)cc2O1 (centres unmarked) [Compound 243, 3-(2-{2-[(dimethylamino)methyl]-2,3-dihydro-1-benzofuran-6-ylamino}-4-pyrimidinylamino)-8-fluoro-1,2-dihydro-2-quinolinone]
10 | 5.70 to 6.30 | O=S1(=O)CCN([C@H]2C[C@H](Oc3ccc(Nc4nccc(Nc5cnc6c(Cl)cccc6c5)n4)cc3)C2)CC1 [Compound 349]
11 | ≥ 6.30 | COc1cc(N2CCN(C3COC3)CC2)ncc1Nc1nccc(Nc2cnc3ccc(Cl)cc3c2)n1 [Compound 494, 4-(6-chloro-3-quinolylamino)-2-{4-methoxy-6-[4-(3-oxetanyl)-1-piperazinyl]-3-pyridylamino}pyrimidine]
12 | 5.00 to 5.70 | O=S1(=O)CCN([C@H]2C[C@H](Oc3ccc(Nc4nccc(Nc5cnc6cc(Cl)ccc6c5)n4)cc3)C2)CC1 [Compound 350, 4-[(1r,3r)-3-{p-[4-(7-chloro-3-quinolylamino)-2-pyrimidinylamino]phenoxy}cyclobutyl]-1λ^6,4-thiazinane-1,1-dione]
13 | ≥ 6.30 | Clc1cc(Nc2nccc(Nc3cnc4ccccc4c3)n2)ccc1N1CCOCC1 [Compound 459, 2-(3-chloro-4-morpholinophenylamino)-4-(3-quinolylamino)pyrimidine]
14 | ≥ 6.30 | Clc1cccc2cc(Nc3ccnc(Nc4ccc(OCCCN5CCOCC5)cc4)n3)cnc12 [Compound 416, 4-(8-chloro-3-quinolylamino)-2-[p-(3-morpholinopropoxy)phenylamino]pyrimidine]
